Experimental data published in patent US20080269259A1, “Regulation of Autophagy and Cell Survival” (THE TRUSTEES OF THE UNIVERSITY OF PENNSYLVANIA, priority 2005, published 2008).

How the values were obtained:
Bax^−/−Bak^−/− cells [1] = assay: Viability of IL-3 dependent Bax−/−Bak−/− cells (propidium iodide exclusion); format: cell-based, mice; conditions: for effect on survival of cells grown in the presence of IL-3 / death of the cells in the cultures: 5 mM 3-MA or 10 μM CQ; for effect on survival of cells grown in the presence of IL-3: IL-3 present; for death of the cells in the cultures: by 48 hours, cells deprived of growth factor for 6 weeks
Protocol: Immortalized IL-3 dependent cells were obtained from the bone marrow of two independent Bax^−/−Bak^−/− mice using previously established protocols. Subsequent experiments using these cells were performed in complete media consisting of: RPMI 1640 medium (Invitrogen) supplemented with 10% heat inactivated fetal bovine serum (Gemini), 10 units/mL penicillin/streptomycin and 2 mM L-glutamine (Invitrogen), 50 μm β-mercaptoethanol (Sigma) and 10 mM HEPES (Invitrogen). For cells grown in the presence of IL-3, the complete medium was supplemented with 3.5 ng/mL of murine recombinant IL-3 (BD Pharmingen). For IL-3 withdrawal experiments, cells were washed three times in medium without IL-3 and serum. After the final wash, cells were resuspended in complete medium without IL-3. Medium for cells cultured in the absence of IL-3 was replaced with fresh complete medium without IL-3 every 10 days. […] Cell size and number was assessed by using a Coulter Z2 particle analyzer. For readdition experiments, cells grown in the absence of IL-3 at the indicated time points were pelleted by centrifugation and resuspended in complete media containing 3.5 ng/mL IL-3. The FL5.12 cell line was maintained in complete media supplemented with 0.35 ng/mL IL-3. For measurement of mitochondrial membrane potential, cells were incubated for 30 minutes with 50 nM of tetramethyl rhodamine ethyl ester (TMRE; Molecular Probes) in the presence or absence of 50 μM CCCP (Sigma). Viability was performed by incubating cells with annexin V conjugated fluorescein isothiocyanate (BD Pharmingen) in buffer containing 1 μg/mL propidium iodide (Molecular Probes) followed by FACS analysis. DNA fragmentation assay was performed as previously described.

LC3 = LC3 immunofluorescence staining of autophagosomes; format: cell-based, mice; conditions: cells without IL-3 for 6 weeks, 18 hours of 5 mM 3-MA or 10 μM CQ
Protocol: Antibodies (all 1:1000 dilution) used were: GLUT1 (Research Diagnostic Inc.), calreticulin (StressGen), STAT3 (Cell Signalling), actin (Sigma), LC3 (gift from T. Yoshimori), ATG5 (gift from N. Mizushima), Bax (Santa Cruz) and Bak (Upstate Technologies). For immunofluorescence staining, cells were fixed in 4% paraformaldehyde and permeabilized with 0.1% Triton X-100, washed 3 times (PBS containing 0.01% Triton X-100 and 10% FBS), followed by incubation with […]. […] Images were captured using a Zeiss 510 confocal microscope. For surface analysis, cells were fixed in 4% paraformaldehyde, stained with 1:100 biotin-anti-IL-3 alpha chain receptor (BD Pharmingen) and a 1:100 dilution of streptavidin conjugated fluorescein isothiocyanate (BD Pharmingen) followed by FACS analysis.

Bax^−/−Bak^−/− cells [2] = assay: ATP levels in growth factor-deprived cells; format: cell-based, mice; conditions: IL-3 deprived cells; for ATP levels: 8 hours after addition of drug
Protocol: The conversion of 5-^3H-glucose to ^3H2O was used to measure the glycolytic rate. The level of ATP was measured as described previously.

[3] = system: Myc/p53ER^TAM lymphoma cells; assay: In vitro growth of Myc/p53ER^TAM lymphoma cells (cell number); format: cell-based, mice; conditions: Mus musculus, 96 h; cell number measured on day 4, medium changed daily, single agent; read-out: IC50, impairment of lymphoma cell growth
Text: For all in vitro experiments media+supplements and drugs treatments were changed daily.

Myc/p53ER^TAM lymphomas [4] = assay: Myc/p53ER^TAM lymphoma tumor growth, regression and recurrence in syngeneic mice; format: in vivo
Protocol: All experiments were performed in accordance with approved animal safety protocols. All experiments were carried out using 8-10 week old C57BL/6X129F1 mice obtained from The Jackson Laboratory (Bar Harbor, Me.). Bone marrow cell harvest and production of bone marrow-derived neoplasms followed the protocol previously described. After primary tumor formation, tumor cells were harvested in ice cold PBS by passage through a […] nylon mesh (BD Bioscience, Bedford, Md.) and expanded in vivo by subcutaneous injection into the flanks of syngeneic mice. For tissue analysis, all animals were sacrificed individually by CO2 asphyxiation and tissue was harvested immediately. Tumors were harvested in ice cold PBS. For each tumor, sections of visually viable tumor tissue were fixed in 10% formalin for preparation of paraffin-embedded sections, glutaraldehyde for electron microscopy (see below). Tumor cell lysates were achieved through manual agitation of remaining tumor tissue in RIPA buffer.
(§1) For tamoxifen (TAM) treatment, the hormone powder (Sigma, St. Louis) was dispersed, via sonication, in peanut oil (Sigma) at a concentration of 10 mg/mL. The administration of TAM was done via daily IP injections at the dose of 1 mg per mouse.
(§2) 4-hydroxytamoxifen (hTAM) (Sigma) was dissolved in ethanol. Cyclophosphamide (Sigma) was dissolved in PBS. Tumors were measured on a daily basis using calipers and tumor volume was calculated using the formula: (mm^3)=AxBx[A+B]/2

[5] = system: Myc/p53ER^TAM/GFP-LC3 cells; assay: GFP-LC3 fluorescence imaging; format: cell-based, mice; conditions: hTAM 250 mM, CQ 5 pM as printed; 48 hours
Protocol: For GFP-LC3 fluorescence imaging, Myc/p53ER^TAM/IGFP-LC3 cells (see below) were exposed to the indicated treatments and fixed with 4% paraformaldehyde for 30 minutes at room temperature, washed three times and centrifuged onto slides. DAPI counterstain was used to identify cells with intact nuclei. All fluorescence imaging was performed and digitally captured at 100× magnification on a Nikon Eclipse E800 fluorescent microscope.

[6] = Observed toxicity in treated tumor-bearing mice
Protocol: as §1, §2

cleaved caspase 3 = assay: Western blot of cleaved caspase 3 in tumor lysates; format: in vivo, mice; conditions: lysates obtained at 48 hours; data not shown
Text: Cultured cells were lysed in RIPA buffer. Tumor lysates were obtained by manual agitation of tumor tissue and lysis in RIPA. Lysates were standardized for protein content and resolved by SDS-PAGE on 14% NuPAGE gels (Invitrogen, St Louis, Mo.). Nitrocellulose blots were probed with antibodies against cleaved caspase 3 (rabbit monoclonal antibody; […]) (Cell Signaling, Beverly, Mass.); anti-actin (mouse monoclonal antibody; 1:10,000) (Sigma, St. Louis, Mo.); anti-ATG5 (rabbit polyclonal antibody; 1:2000) (gift from N. Mizushima).

Myc/p53ER^TAM lymphomas [7] = assay: Electron microscopy and quantification of autophagosomes in tumors; format: in vivo, mice; conditions: 24 hours after initiation of TAM/PBS compared to 48 hours of PBS alone; p<0.0005
Text: Cells were postfixed with 2% osmium tetroxide followed by an increasing gradient dehydration step using ethanol and propylene oxide. […] Data is presented as mean ±SD.

With `Cn1cnc(N)c2ncnc1-2` [3-MA, 3-methyladenine] the “effect on survival of cells grown in the presence of IL-3” value (Bax^−/−Bak^−/− cells [1]) was “no significant effect”, the “death of the cells in the cultures” value (Bax^−/−Bak^−/− cells [1]) was 72% and the “number of autophagosomes (LC3 redistribution from punctate to diffuse staining)” value (LC3) was “reduction in the number of autophagosomes”. The ATP levels (Bax^−/−Bak^−/− cells [2]) was “dramatic decline in ATP levels”.

For `CCN(CC)CCCC(C)Nc1ccnc2cc(Cl)ccc12` (centres unmarked) [CQ, chloroquine], the IC50 [3] was 3000 nM, the “effect on survival of cells grown in the presence of IL-3” value (Bax^−/−Bak^−/− cells [1]) was “no significant effect” and the “death of the cells in the cultures” value (Bax^−/−Bak^−/− cells [1]) was 82%. The tumor regression (Myc/p53ER^TAM lymphomas [4]; CQ 50 or 60 mg/kg/day IP daily, single agent) was “not observed”, the “average time to tumor recurrence” value (Myc/p53ER^TAM lymphomas [4]; cyclophosphamide 50 mg/kg IP once followed by daily CQ 60 mg/kg/day IP for 13 days) was 12.5 ± 6.6 days and the “number of autophagosomes (LC3 redistribution from punctate to diffuse staining)” value (LC3) was “reduction in the number of autophagosomes”. The ATP levels (Bax^−/−Bak^−/− cells [2]) was “dramatic decline in ATP levels”, the “punctate GFP-LC3 fluorescence” value [5] was “Some punctate GFP-LC3 fluorescence” and the “additional toxicity in treated animals” value ([6]; CQ cotreatment with TAM or with cyclophosphamide) was “did not result in additional toxicity”. The observed toxicity ([6]; daily IP 50 mg/kg/day or 60 mg/kg/day) was “no observed toxicity” and the “tolerability of systemic administration” value ([6]; for up to 20 days) was “well tolerated”.

With `CC/C(=C(\c1ccccc1)c1ccc(OCCN(C)C)cc1)c1ccccc1` [TAM/PBS, tamoxifen] the “mice with complete clinical regression of their tumor” value (Myc/p53ER^TAM lymphomas [4]; TAM/CQ and TAM/HCQ pooled in one figure, p<0.005) was 8%, the “cleaved caspase 3 in tumor lysates” value (cleaved caspase 3) was “absent” and the “increase of percentage of tumor cells with autophagosomes” value (Myc/p53ER^TAM lymphomas [7]) was 30 fold.

For 4-hydroxytamoxifen [hTAM], the “punctate GFP-LC3 fluorescence” value [5] was “increased number of punctate LC3 associated vesicles”.

In the case of `COC(=O)C(C)=O` [methyl pyruvate], the “effect on death observed in response to 3-MA and CQ” value (Bax^−/−Bak^−/− cells [1]; 10 mM methyl pyruvate added at the time of 3-MA or CQ treatment, IL-3 deprived 6 weeks) is reported as “suppressed the death” and the “effect on ATP decline caused by 3-MA or CQ” value (Bax^−/−Bak^−/− cells [2]; 10 mM MP, 8 hours) is reported as “could be suppressed”.

With `O=P1(N(CCCl)CCCl)NCCCO1` (centres unmarked) [cyclophosphamide] the “average time to tumor recurrence” value (Myc/p53ER^TAM lymphomas [4]; cyclophosphamide 50 mg/kg IP once followed by daily PBS) was 5.25 ± 1.9 days and the tumor regression (Myc/p53ER^TAM lymphomas [4]; single dose cyclophosphamide 50 mg/kg IP with or without CQ) was “complete tumor regression in all treated mice”.
